Patent US9156796B2, “Benzoimidazole-carboxylic acid amide derivatives as APJ receptor modulators” (SANOFI, priority 2013, dated 2015)

Target: T1, human apelin receptor (Homo sapiens, UniProt P35414)
T1 construct: expressed in transfected cells
T1 sequence (P35414 1-380): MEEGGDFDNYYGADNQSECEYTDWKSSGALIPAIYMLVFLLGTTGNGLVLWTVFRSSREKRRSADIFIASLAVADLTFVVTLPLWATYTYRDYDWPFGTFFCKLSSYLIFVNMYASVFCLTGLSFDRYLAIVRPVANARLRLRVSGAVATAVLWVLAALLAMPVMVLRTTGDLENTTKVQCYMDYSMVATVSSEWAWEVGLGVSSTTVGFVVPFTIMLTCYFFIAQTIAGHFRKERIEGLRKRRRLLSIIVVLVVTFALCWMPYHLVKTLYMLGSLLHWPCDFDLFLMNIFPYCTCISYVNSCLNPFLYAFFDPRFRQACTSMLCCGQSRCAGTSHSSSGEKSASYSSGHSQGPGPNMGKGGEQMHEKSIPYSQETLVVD
Test: Determination of agonism on the human apelin receptor by a calcium fluorescence assay (FLIPR)
Type: cell-based
Settings: HEK293 cells stably transfected with human apelin receptor and Giaq protein, Fluo-4 calcium fluorescence, read-out: EC50 (APJ agonism)
Summary of the method: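 HEK293 cells stably co-expressing human apelin receptor and promiscuous Giaq, loaded 1 h at 37 °C with Fluo-4 (4 μM) in probenecid-containing Hepes buffer, pH 7.4. Compounds, at least 7 concentrations in triplicate, added in FLIPR Tetra; peak calcium fluorescence normalized to 1 μM apelin-13 as 100% to derive EC50.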

| EC50 [nM] | SMILES |
| --- | --- |
| 915 | C[C@@H]1CCCC[C@H]1n1c(Cc2cccs2)nc2cc(C(=O)NC(CC3CCCCCC3)C(=O)O)ccc21 (stereo partly drawn) [Example 40, 3-Cycloheptyl-2-{[1-((1R,2R)-2-methyl-cyclohexyl)-2-thiophen-2-ylmethyl-1H-benzoimidazole-5-carbonyl]-amino}-propionic acid] |
| 2430 | CCC(CC)n1c(Cc2ccco2)nc2cc(C(=O)NC(CC(=O)O)C(C)C)ccc21 (stereo not drawn) [Example 41, 3-{[1-(1-Ethyl-propyl)-2-furan-2-ylmethyl-1H-benzoimidazole-5-carbonyl]-amino}-4-methyl-pentanoic acid] |
| 1100 | CCC(CC)n1c(Cc2ccco2)nc2cc(C(=O)NC(CC(=O)O)c3ccccc3)ccc21 (stereo not drawn) [Example 42, 3-{[1-(1-Ethyl-propyl)-2-furan-2-ylmethyl-1H-benzoimidazole-5-carbonyl]-amino}-3-phenyl-propionic acid] |
| 14500 | CCC(CC)n1c(CC2CCCC2)nc2cc(C(=O)NC(CC(=O)O)c3ccccc3)ccc21 (stereo not drawn) [Example 43, 3-{[2-Cyclopentylmethyl-1-(1-ethyl-propyl)-1H-benzoimidazole-5-carbonyl]-amino}-3-phenyl-propionic acid] |
| 258 | CCC(CC)n1c(Cc2cccs2)nc2cc(C(=O)NC(CC(=O)O)C3CCCCC3)ccc21 (stereo not drawn) [Example 44, 3-Cyclohexyl-3-{[1-(1-ethyl-propyl)-2-thiophen-2-ylmethyl-1H-benzoimidazole-5-carbonyl]-amino}-propionic acid] |
| 552 | CCCCC(CC(=O)O)NC(=O)c1ccc2c(c1)nc(Cc1cccs1)n2C(CC)CC (stereo not drawn) [Example 45, 3-{[1-(1-Ethyl-propyl)-2-thiophen-2-ylmethyl-1H-benzoimidazole-5-carbonyl]-amino}-heptanoic acid] |
| 112 | CCC(CC)n1c(Cc2cccs2)nc2cc(C(=O)NC(CC(=O)O)CC3CCCCC3)ccc21 (stereo not drawn) [Example 46, 4-Cyclohexyl-3-{[1-(1-ethyl-propyl)-2-thiophen-2-ylmethyl-1H-benzoimidazole-5-carbonyl]-amino}-butyric acid] |
| 2580 | CCC(CC)n1c(Cc2cccs2)nc2cc(C(=O)NC(CC(=O)O)CC(C)(C)C)ccc21 (stereo not drawn) [Example 47, 3-{[1-(1-Ethyl-propyl)-2-thiophen-2-ylmethyl-1H-benzoimidazole-5-carbonyl]-amino}-5,5-dimethyl-hexanoic acid] |
| 4190 | CCC(CC)n1c(Cc2cccs2)nc2cc(C(=O)N[C@@H](CC(=O)O)CC(C)C)ccc21 [Example 48, (R)-3-{[1-(1-Ethyl-propyl)-2-thiophen-2-ylmethyl-1H-benzoimidazole-5-carbonyl]-amino}-5-methyl-hexanoic acid] |
| 7070 | CCC(CC)n1c(Cn2cccn2)nc2cc(C(=O)N[C@H](CC(=O)O)CC(C)C)ccc21 [Example 49, (S)-3-{[1-(1-Ethyl-propyl)-2-pyrazol-1-ylmethyl-1H-benzoimidazole-5-carbonyl]-amino}-5-methyl-hexanoic acid] |
| 205 | CCC(CC)n1c(Cc2cncs2)nc2cc(C(=O)N[C@H](CC(=O)O)CC(C)C)ccc21 [Example 50, (S)-3-{[1-(1-Ethyl-propyl)-2-thiazol-5-ylmethyl-1H-benzoimidazole-5-carbonyl]-amino}-5-methyl-hexanoic acid] |
| 211 | C[C@@H]1CCCC[C@H]1n1c(Cc2cccs2)nc2cc(C(=O)NC(CC(=O)O)CC3CCCCC3)ccc21 (stereo partly drawn) [Example 51, 4-Cyclohexyl-3-{[1-((1R,2R)-2-methyl-cyclohexyl)-2-thiophen-2-ylmethyl-1H-benzoimidazole-5-carbonyl]-amino}-butyric acid] |
| 12300 | C[C@H]1CCCC[C@@H]1n1c(Cc2cccs2)nc2cc(C(=O)NC(CC(=O)O)CC3CCCCC3)ccc21 (stereo partly drawn) [Example 52, 4-Cyclohexyl-3-{[1-((1S,2S)-2-methyl-cyclohexyl)-2-thiophen-2-ylmethyl-1H-benzoimidazole-5-carbonyl]-amino}-butyric acid] |
| 48 | CC[C@H](C)[C@@H](CC(=O)O)NC(=O)c1ccc2c(c1)nc(Cc1cccs1)n2[C@@H]1CCCC[C@H]1C [Example 53, (3R,4S)-4-Methyl-3-{[1-((1R,2R)-2-methyl-cyclohexyl)-2-thiophen-2-ylmethyl-1H-benzoimidazole-5-carbonyl]-amino}-hexanoic acid] |
| 115 | CCC(CC)n1c(Cc2cccs2)nc2cc(C(=O)N[C@H](CC(=O)O)[C@@H](C)CC)ccc21 [Example 54, (3R,4S)-3-{[1-(1-Ethyl-propyl)-2-thiophen-2-ylmethyl-1H-benzoimidazole-5-carbonyl]-amino}-4-methyl-hexanoic acid] |
| 196 | CCCC(CC(=O)O)NC(=O)c1ccc2c(c1)nc(Cc1cccs1)n2[C@@H]1CCCC[C@H]1C (stereo partly drawn) [Example 55, 3-{[1-((1R,2R)-2-Methyl-cyclohexyl)-2-thiophen-2-ylmethyl-1H-benzoimidazole-5-carbonyl]-amino}-hexanoic acid] |
| 157 | CCCCC(CC(=O)O)NC(=O)c1ccc2c(c1)nc(Cc1cccs1)n2[C@@H]1CCCC[C@H]1C (stereo partly drawn) [Example 56, 3-{[1-((1R,2R)-2-Methyl-cyclohexyl)-2-thiophen-2-ylmethyl-1H-benzoimidazole-5-carbonyl]-amino}-heptanoic acid] |
| 475 | C[C@@H]1CCCC[C@H]1n1c(Cc2cccs2)nc2cc(C(=O)NC(CC(=O)O)C3CCCCC3)ccc21 (stereo partly drawn) [Example 57, 3-Cyclohexyl-3-{[1-((1R,2R)-2-methyl-cyclohexyl)-2-thiophen-2-ylmethyl-1H-benzoimidazole-5-carbonyl]-amino}-propionic acid] |
| 172 | CCCCC(NC(=O)c1ccc2c(c1)nc(Cc1cccs1)n2C(CC)CC)C(C)(C)C(=O)O (stereo not drawn) [Example 58, 3-{[1-(1-Ethyl-propyl)-2-thiophen-2-ylmethyl-1H-benzoimidazole-5-carbonyl]-amino}-2,2-dimethyl-heptanoic acid] |
| 576 | CCC(CC)C(CC(=O)O)NC(=O)c1ccc2c(c1)nc(Cc1cccs1)n2C(CC)CC (stereo not drawn) [Example 59, 4-Ethyl-3-{[1-(1-ethyl-propyl)-2-thiophen-2-ylmethyl-1H-benzoimidazole-5-carbonyl]-amino}-hexanoic acid] |
| 46 | CCC(CC)n1c(Cc2cccs2)nc2cc(C(=O)N[C@H](CC(=O)O)CC3CCCC3)ccc21 [Example 60, (S)-4-Cyclopentyl-3-{[1-(1-ethyl-propyl)-2-thiophen-2-ylmethyl-1H-benzoimidazole-5-carbonyl]-amino}-butyric acid] |
| 75 | C[C@@H]1CCCC[C@H]1n1c(Cc2cccs2)nc2cc(C(=O)N[C@H](CC(=O)O)CC3CCCC3)ccc21 [Example 61, (S)-4-Cyclopentyl-3-{[1-((1R,2R)-2-methyl-cyclohexyl)-2-thiophen-2-ylmethyl-1H-benzoimidazole-5-carbonyl]-amino}-butyric acid] |
| 193 | CCC(CC)n1c(Cc2cccs2)nc2cc(C(=O)NC(CC(C)C)C(C)(C)C(=O)O)ccc21 (stereo not drawn) [Example 62, 3-{[1-(1-Ethyl-propyl)-2-thiophen-2-ylmethyl-1H-benzoimidazole-5-carbonyl]-amino}-2,2,5-trimethyl-hexanoic acid] |
| 343 | CCCC(NC(=O)c1ccc2c(c1)nc(Cc1cccs1)n2C(CC)CC)C(C)(C)C(=O)O (stereo not drawn) [Example 63, 3-{[1-(1-Ethyl-propyl)-2-thiophen-2-ylmethyl-1H-benzoimidazole-5-carbonyl]-amino}-2,2-dimethyl-hexanoic acid] |
| 176 | CCC(CC)n1c(Cc2cccs2)nc2cc(C(=O)NC3(CC(=O)O)CCCCC3)ccc21 [Example 64, (1-{[1-(1-Ethyl-propyl)-2-thiophen-2-ylmethyl-1H-benzoimidazole-5-carbonyl]-amino}-cyclohexyl)-acetic acid] |
| 56 | C[C@@H]1CCCC[C@H]1n1c(Cc2cncs2)nc2cc(C(=O)NC(CC(=O)O)CC3CCCCC3)ccc21 (stereo partly drawn) [Example 65, 4-Cyclohexyl-3-{[1-((1R,2R)-2-methyl-cyclohexyl)-2-thiazol-5-ylmethyl-1H-benzoimidazole-5-carbonyl]-amino}-butyric acid] |
| 87 | C[C@@H]1CCCC[C@H]1n1c(Cc2cccs2)nc2cc(C(=O)NC3(CC(=O)O)CCCCC3)ccc21 [Example 66, (1-{[1-((1R,2R)-2-Methyl-cyclohexyl)-2-thiophen-2-ylmethyl-1H-benzoimidazole-5-carbonyl]-amino}-cyclohexyl)-acetic acid] |
| 79 | CCC(CC)n1c(Cc2cccs2)nc2cc(C(=O)N[C@@H](CC(C)C)[C@@H](O)C(=O)O)ccc21 [Example 67, (2R,3S)-3-{[1-(1-Ethyl-propyl)-2-thiophen-2-ylmethyl-1H-benzoimidazole-5-carbonyl]-amino}-2-hydroxy-5-methyl-hexanoic acid] |
| 18 | CCC(CC)n1c(Cc2cccs2)nc2cc(C(=O)N[C@@H](CC(C)C)[C@H](O)C(=O)O)ccc21 [Example 68, (2S,3S)-3-{[1-(1-Ethyl-propyl)-2-thiophen-2-ylmethyl-1H-benzoimidazole-5-carbonyl]-amino}-2-hydroxy-5-methyl-hexanoic acid] |
| 339 | CC(C)C[C@@H](CCC(=O)O)NC(=O)c1ccc2c(c1)nc(Cc1cccs1)n2C1CCCCC1C(F)(F)F (stereo partly drawn) [Example 69, (R)-6-Methyl-4-{[2-thiophen-2-ylmethyl-1-(2-trifluoromethyl-cyclohexyl)-1H-benzoimidazole-5-carbonyl]-amino}-heptanoic acid] |
